# Experiments:
# Assay in all cases: relative viability (nuclei count vs DMSO), 5 days (fraction); higher = more cells survive
# [1] = system: A-427
# Outline: (§1)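 For relative viability, nuclei counts in treated wells were divided by those in vehicle wells. Lung cancer cell lines had been pin-tool dosed in 1536-well plates the day after seeding and cultured for 5 days, then fixed and stained in one step (final 0.05% Triton X-100, 1% formaldehyde, 1 ug/ml Hoechst) and imaged at 4×. Doses were one drug alone or a fixed anchor-drug dose plus five library-drug doses (not always all listed) in √10 steps, and values are duplicate-plate medians.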
# [2] = system: COR-L 105
# Outline: as §1
# [3] = system: EKVX
# Outline: as §1
# [4] = system: EMC-BAC-2
# Outline: as §1
# [5] = system: H3255
# Outline: as §1
# [6] = system: HCC-366
# Outline: as §1
# [7] = system: LK-2
# Outline: as §1
# [8] = system: LOU-NH91
# Outline: as §1
# [9] = system: NCI-H1563
# Outline: as §1
# [10] = system: NCI-H1666
# Outline: as §1
# [11] = system: NCI-H1734
# Outline: as §1
# [12] = system: NCI-H1755
# Outline: as §1
# [13] = system: NCI-H1792
# Outline: as §1
# [14] = system: NCI-H1975
# Outline: as §1
# [15] = system: NCI-H2170
# Outline: as §1
# [16] = system: NCI-H23
# Outline: as §1
# [17] = system: NCI-H441
# Outline: as §1
# [18] = system: NCI-H520
# Outline: as §1
# [19] = system: NCI-H596
# Outline: as §1
# [20] = system: PC-3 [JPC-3]
# Outline: as §1
# [21] = system: SK-MES-1
# Outline: as §1
smiles,measurement,setting,value
CC1(C)CCC(c2ccc(Cl)cc2)=C(CN2CCN(c3ccc(C(=O)NS(=O)(=O)c4ccc(N[C@H](CCN5CCOCC5)CSc5ccccc5)c(S(=O)(=O)C(F)(F)F)c4)cc3)CC2)C1 [Navitoclax] + Cc1nc(NC(=O)N2CCC[C@H]2C(N)=O)sc1-c1ccnc(C(C)(C)C(F)(F)F)c1 [Alpelisib] (partner 2 µM),relative viability,[1]; first compound 0.005 µM,1.01
same,relative viability,[1]; first compound 0.01581 µM,1.06
same,relative viability,[1]; first compound 0.05 µM,0.908
same,relative viability,[1]; first compound 0.1581 µM,1.14
same,relative viability,[1]; first compound 0.5 µM,1.04
same,relative viability,[2]; first compound 0.005 µM,0.878
same,relative viability,[2]; first compound 0.01581 µM,1.22
same,relative viability,[2]; first compound 0.05 µM,0.989
same,relative viability,[2]; first compound 0.1581 µM,1.07
same,relative viability,[2]; first compound 0.5 µM,0.978
same,relative viability,[3]; first compound 0.005 µM,0.828
same,relative viability,[3]; first compound 0.01581 µM,1.15
same,relative viability,[3]; first compound 0.05 µM,0.765
same,relative viability,[3]; first compound 0.1581 µM,0.928
same,relative viability,[3]; first compound 0.5 µM,0.833
same,relative viability,[4]; first compound 0.005 µM,0.733
same,relative viability,[4]; first compound 0.01581 µM,0.764
same,relative viability,[4]; first compound 0.05 µM,0.745
same,relative viability,[4]; first compound 0.1581 µM,0.69
same,relative viability,[4]; first compound 0.5 µM,0.759
same,relative viability,[5]; first compound 0.005 µM,0.635
same,relative viability,[5]; first compound 0.01581 µM,0.745
same,relative viability,[5]; first compound 0.05 µM,0.6
same,relative viability,[5]; first compound 0.1581 µM,0.744
same,relative viability,[5]; first compound 0.5 µM,0.732
same,relative viability,[6]; first compound 0.005 µM,0.391
same,relative viability,[6]; first compound 0.01581 µM,0.588
same,relative viability,[6]; first compound 0.05 µM,0.132
same,relative viability,[6]; first compound 0.1581 µM,0.338
same,relative viability,[6]; first compound 0.5 µM,0.361
same,relative viability,[7]; first compound 0.005 µM,0.919
same,relative viability,[7]; first compound 0.01581 µM,1.29
same,relative viability,[7]; first compound 0.05 µM,1.12
same,relative viability,[7]; first compound 0.1581 µM,0.997
same,relative viability,[7]; first compound 0.5 µM,1.08
same,relative viability,[8]; first compound 0.005 µM,0.729
same,relative viability,[8]; first compound 0.01581 µM,0.809
same,relative viability,[8]; first compound 0.05 µM,0.69
same,relative viability,[8]; first compound 0.1581 µM,0.769
same,relative viability,[8]; first compound 0.5 µM,0.645
same,relative viability,[9]; first compound 0.005 µM,0.947
same,relative viability,[9]; first compound 0.01581 µM,1.03
same,relative viability,[9]; first compound 0.05 µM,0.989
same,relative viability,[9]; first compound 0.1581 µM,0.981
same,relative viability,[9]; first compound 0.5 µM,1.13
same,relative viability,[10]; first compound 0.005 µM,1.03
same,relative viability,[10]; first compound 0.01581 µM,0.944
same,relative viability,[10]; first compound 0.05 µM,1.06
same,relative viability,[10]; first compound 0.1581 µM,0.878
same,relative viability,[10]; first compound 0.5 µM,0.958
same,relative viability,[11]; first compound 0.005 µM,0.618
same,relative viability,[11]; first compound 0.01581 µM,0.779
same,relative viability,[11]; first compound 0.1581 µM,0.645
same,relative viability,[11]; first compound 0.5 µM,0.63
same,relative viability,[12]; first compound 0.005 µM,0.903
same,relative viability,[12]; first compound 0.01581 µM,1
same,relative viability,[12]; first compound 0.05 µM,0.906
same,relative viability,[12]; first compound 0.1581 µM,0.904
same,relative viability,[12]; first compound 0.5 µM,0.947
same,relative viability,[13]; first compound 0.005 µM,0.735
same,relative viability,[13]; first compound 0.01581 µM,0.878
same,relative viability,[13]; first compound 0.05 µM,0.534
same,relative viability,[13]; first compound 0.1581 µM,0.657
same,relative viability,[13]; first compound 0.5 µM,0.692
same,relative viability,[14]; first compound 0.005 µM,0.639
same,relative viability,[14]; first compound 0.01581 µM,0.732
same,relative viability,[14]; first compound 0.05 µM,0.752
same,relative viability,[14]; first compound 0.1581 µM,0.653
same,relative viability,[14]; first compound 0.5 µM,0.578
same,relative viability,[15]; first compound 0.005 µM,0.785
same,relative viability,[15]; first compound 0.01581 µM,0.872
same,relative viability,[15]; first compound 0.05 µM,0.927
same,relative viability,[15]; first compound 0.1581 µM,0.8
same,relative viability,[15]; first compound 0.5 µM,0.583
same,relative viability,[16]; first compound 0.005 µM,0.649
same,relative viability,[16]; first compound 0.01581 µM,0.679
same,relative viability,[16]; first compound 0.05 µM,0.676
same,relative viability,[16]; first compound 0.1581 µM,0.633
same,relative viability,[16]; first compound 0.5 µM,0.598
same,relative viability,[17]; first compound 0.005 µM,0.654
same,relative viability,[17]; first compound 0.01581 µM,0.901
same,relative viability,[17]; first compound 0.05 µM,0.852
same,relative viability,[17]; first compound 0.1581 µM,0.743
same,relative viability,[17]; first compound 0.5 µM,0.63
same,relative viability,[18]; first compound 0.005 µM,0.915
same,relative viability,[18]; first compound 0.01581 µM,0.892
same,relative viability,[18]; first compound 0.05 µM,0.981
same,relative viability,[18]; first compound 0.1581 µM,0.892
same,relative viability,[18]; first compound 0.5 µM,0.982
same,relative viability,[19]; first compound 0.005 µM,0.515
same,relative viability,[19]; first compound 0.01581 µM,0.481
same,relative viability,[19]; first compound 0.05 µM,0.399
same,relative viability,[19]; first compound 0.1581 µM,0.57
same,relative viability,[19]; first compound 0.5 µM,0.408
same,relative viability,[20]; first compound 0.005 µM,1.04
same,relative viability,[20]; first compound 0.01581 µM,1.02
same,relative viability,[20]; first compound 0.05 µM,1.02
same,relative viability,[20]; first compound 0.1581 µM,1.03
same,relative viability,[20]; first compound 0.5 µM,1.06
same,relative viability,[21]; first compound 0.005 µM,0.761
same,relative viability,[21]; first compound 0.01581 µM,1.01
same,relative viability,[21]; first compound 0.05 µM,0.922
same,relative viability,[21]; first compound 0.1581 µM,0.827
same,relative viability,[21]; first compound 0.5 µM,1.04
